Values quoted from earlier work in patent US12708665B2, “Anti-IL-1β antibody therapy in arrhythmogenic cardiomyopathy (ACM)” (Beth Israel Deaconess Medical Center, Inc., priority 2019, dated 2026).

Experiments:
[1] = test system: patients with coronary artery disease; conditions: cited from earlier work
[2] = test system: in vitro and in vivo models of ACM; conditions: multiple in vitro and in vivo models of ACM, human iPSC-cardiac myocytes from ACM patients; cited from earlier work

| Compound | infectious complications related to immunosuppression ([1]; in vivo) | major adverse cardiac events ([1]; patients with coronary artery disease, CANTOS trial) | effect on ACM disease phenotype (arrhythmias, exercise-induced sudden death, myocyte injury and apoptosis, inflammation, contractile dysfunction) [2] |
| --- | --- | --- | --- |
| monoclonal antibody against IL-1β: monoclonal antibody against IL-1β used in the CANTOS trial (ref. 36) | not associated with significant infectious complications | significantly reduced | – |
| Cn1cc(C2=C(c3ccc(Cl)cc3Cl)C(=O)NC2=O)c2ccccc21 [SB216763] | – | – | prevent and/or reverse the full ACM disease phenotype |
